This passage reports GI50 and TGI results from PubChem BioAssay (NCI).

Values joined by “and” are separate entries in the source; they are usually repeats but may differ in a detail not shown here. Equal values may be shown once.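 Cells were grown in 96-well plates and exposed to each compound for 48 hours at five concentrations; endpoints were interpolated linearly between bracketing concentrations, or set to the highest concentration if not reached. At the GI50, growth is halved. TGI is the concentration that stops growth completely.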

Some test systems named below: HOP-92 NSCLC; SNB-75 CNS; BT-549 breast; SK-MEL-2 melanoma; COLO 205 colon; SNB-19 CNS; TK-10 renal; HCT-116 colon; HCT-15 colon; UACC-257 melanoma.
What all share (assay): NCI-60 cell line screen, 48 h

For `C=C1C(=O)O[C@H]2[C@H]1CC/C(C=Nc1c(N)cc(C(F)(F)F)cc1Br)=C\CC[C@@]1(C)O[C@@H]21`, the GI50 in the assay on HOP-92 NSCLC was 1.17 µM; with SNB-75 CNS, 1.27 µM; in the assay with BT-549 breast it was 1.41 µM; with SK-MEL-2 melanoma it was 1.63 µM; in the assay with COLO 205 colon, 1.6 µM; in the assay with SNB-19 CNS it was 3.46 µM. The GI50 was 1.98 µM in the assay with TK-10 renal, 1.11 µM with HCT-116 colon, 1.55 µM with HCT-15 colon and 1.64 µM in the assay with UACC-257 melanoma. Moreover, the TGI in the assay with HOP-92 NSCLC was determined as 2.75 µM; in the assay with SNB-75 CNS it was 3.67 µM; in the assay on BT-549 breast, 2.91 µM; in the assay on SK-MEL-2 melanoma, 3.47 µM; in the assay on COLO 205 colon, 3.16 µM; with SNB-19 CNS it was 13.2 µM. Moreover, the TGI in the assay on TK-10 renal was 3.49 µM; in the assay on HCT-116 colon it was 2.41 µM; in the assay with HCT-15 colon it was 4.24 µM; with UACC-257 melanoma, 3.61 µM.
In the case of `COc1ccc(C(=O)c2ccc([As]=O)cc2)cc1` (stereo unspecified), the GI50 in the assay on HOP-92 NSCLC was 0.13 µM; in the assay with SNB-75 CNS, 0.126 µM; in the assay with BT-549 breast, 0.166 µM; in the assay with SK-MEL-2 melanoma it was 0.173 µM; in the assay with COLO 205 colon it was 0.041 µM; with SNB-19 CNS it was 0.0932 µM. In addition, the GI50 was 0.057 µM in the assay on TK-10 renal, 0.0387 µM in the assay with HCT-116 colon and 0.0259 µM in the assay on HCT-15 colon. Besides, the TGI amounted to 0.262 µM in the assay with HOP-92 NSCLC; 0.417 µM with SNB-75 CNS; 0.315 µM in the assay with BT-549 breast; 0.373 µM in the assay on SK-MEL-2 melanoma; 0.166 µM in the assay with COLO 205 colon; 0.236 µM in the assay with SNB-19 CNS. Also, the results for the TGI in the assay on TK-10 renal, with HCT-116 colon and in the assay with HCT-15 colon were 0.18 µM, 0.154 µM and 0.11 µM, respectively.
`CCN(C(=O)/C=C/c1ccco1)c1ccccc1`: the TGI in the assay on HOP-92 NSCLC, in the assay on SNB-75 CNS, in the assay on BT-549 breast, in the assay with SK-MEL-2 melanoma, in the assay on COLO 205 colon and in the assay on SNB-19 CNS was over 100 µM each time. The TGI in the assay with TK-10 renal, in the assay on HCT-116 colon, in the assay on HCT-15 colon and in the assay on UACC-257 melanoma was over 100 µM each time.
Turning to `CCNC(=O)c1noc(-c2cc(C(C)C)c(O)cc2O)c1-c1ccc(CN2CCOCC2)cc1`, the GI50 in the assay on HOP-92 NSCLC was 0.0252 µM; in the assay with SNB-75 CNS it was 4.51 µM; in the assay with BT-549 breast, 8.36 µM; with SK-MEL-2 melanoma it was 0.0311 µM; in the assay with COLO 205 colon it was 0.0787 µM; with SNB-19 CNS it was 0.0762 µM. Further, the GI50 was 0.0233 µM in the assay on TK-10 renal, 0.0313 µM in the assay on HCT-116 colon, 0.0388 µM in the assay with HCT-15 colon and 0.0259 µM in the assay with UACC-257 melanoma. Besides, the TGI in the assay on HOP-92 NSCLC is 0.0738 µM; with SNB-75 CNS, 55.8 µM; with BT-549 breast, 30.4 µM; in the assay with SK-MEL-2 melanoma, 8.74 µM; in the assay with COLO 205 colon, 5.64 µM; in the assay on SNB-19 CNS, over 100 µM. The TGI in the assay with TK-10 renal amounted to 14.8 µM; with HCT-116 colon it was 15.5 µM; with HCT-15 colon it was 19.9 µM; in the assay on UACC-257 melanoma, 0.159 µM.
For the molecule `C=C1C[C@@H]2CC[C@@]34C[C@H]5O[C@H]6[C@@H](O3)[C@H]3O[C@H](CC[C@@H]3O[C@H]6[C@@H]5O4)CC(=O)C[C@@H]3[C@@H](OC)[C@@H](C[C@H](O)CN)O[C@H]3C[C@H]3O[C@@H](CC[C@@H]1O2)C[C@@H](C)C3=C`, the GI50 was 0.0734 µM with HOP-92 NSCLC; under 0.01 µM in the assay on SNB-75 CNS; under 0.0167 µM with BT-549 breast; under 0.01 µM in the assay with SK-MEL-2 melanoma; under 0.01 µM with COLO 205 colon; under 0.01 µM in the assay on SNB-19 CNS. Moreover, the GI50 in the assay with TK-10 renal is 13.9 µM; with HCT-116 colon, under 0.01 µM; in the assay with HCT-15 colon it was 0.326 µM; in the assay on UACC-257 melanoma, over 65.8 µM. Moreover, the TGI in the assay with HOP-92 NSCLC was 79.4 µM; in the assay on SNB-75 CNS, over 100 µM; with BT-549 breast it was over 37.5 µM; with SK-MEL-2 melanoma, over 100 µM; with COLO 205 colon it was 0.0652 µM; in the assay with SNB-19 CNS it was over 100 µM. The TGI in the assay on TK-10 renal, in the assay on HCT-116 colon, in the assay on HCT-15 colon and in the assay with UACC-257 melanoma was over 100 µM each time.
Take `O=c1c(F)cn(Cc2ccccc2CCl)c(=O)n1Cc1ccccc1CCl`: the GI50 in the assay with HOP-92 NSCLC was 2.35 µM; with SNB-75 CNS it was 1.97 µM; in the assay with BT-549 breast, 1.41 µM; in the assay on SK-MEL-2 melanoma it was 1.54 µM; with COLO 205 colon, 1.7 µM; with SNB-19 CNS it was 3.5 µM. The GI50 in the assay with TK-10 renal is 2.15 µM; with HCT-116 colon, 1.11 µM; with HCT-15 colon it was 1.83 µM. Moreover, the TGI was 6.85 µM with HOP-92 NSCLC; 6.36 µM in the assay with SNB-75 CNS; 2.91 µM in the assay with BT-549 breast; 3.05 µM with SK-MEL-2 melanoma; 3.52 µM with COLO 205 colon; 13.3 µM in the assay on SNB-19 CNS. For the same molecule, the TGI came to 5.44 µM in the assay on TK-10 renal, 2.84 µM in the assay with HCT-116 colon, 4.45 µM in the assay with HCT-15 colon and 2.44 µM in the assay with UACC-257 melanoma.
Consider `C=C1C(=O)O[C@H]2[C@H]1CC/C(COC(=O)NCC(C)c1ccc(CC(C)C)cc1)=C\CC[C@@]1(C)O[C@@H]21` (stereo partly specified), for which the GI50 was 0.545 µM in the assay on HOP-92 NSCLC; 1.21 µM with SNB-75 CNS; 0.775 µM with BT-549 breast; 3.86 µM with SK-MEL-2 melanoma; 1.3 µM in the assay on COLO 205 colon; 3.82 µM in the assay with SNB-19 CNS. Also, the GI50 in the assay on TK-10 renal is 3.34 µM; in the assay on HCT-116 colon, 0.641 µM; in the assay on HCT-15 colon, 0.595 µM; in the assay on UACC-257 melanoma it was 5.01 µM. Moreover, the TGI in the assay on HOP-92 NSCLC was 1.5 µM; with SNB-75 CNS, 5.48 µM; with BT-549 breast it was 2.25 µM; with SK-MEL-2 melanoma, 8.48 µM; in the assay on COLO 205 colon it was 5.3 µM; in the assay on SNB-19 CNS, 7.95 µM. Also, the TGI in the assay on TK-10 renal was 7.23 µM; with HCT-116 colon, 1.32 µM; in the assay on HCT-15 colon, 1.27 µM; in the assay with UACC-257 melanoma, 9.89 µM.
Regarding `CCC1=CC2CN(C1)Cc1c([nH]c3ccccc13)[C@@](C(=O)OC)(c1cc3c(cc1OC)N(C)[C@H]1[C@@](O)(C(=O)OC)[C@H](OC(C)=O)[C@]4(CC)C=CCN5CC[C@]31[C@@H]54)C2` (stereo partly specified), the GI50 in the assay on HOP-92 NSCLC was 1.51 µM; in the assay with BT-549 breast, < 0.005 µM and 0.043 µM; in the assay on COLO 205 colon, 0.00763 µM; with SNB-19 CNS it was 0.0238 µM; with HCT-116 colon, under 0.005 µM; in the assay on HCT-15 colon, 0.277 µM and 0.416 µM. Moreover, the GI50 in the assay on UACC-257 melanoma was 7.54 µM. The TGI was 97.1 µM in the assay on HOP-92 NSCLC; 17.9 µM in the assay with SNB-75 CNS; 14.9 µM and > 100 µM in the assay on SK-MEL-2 melanoma; over 100 µM in the assay on SNB-19 CNS; 50 µM and > 100 µM in the assay on HCT-116 colon; 50 µM and > 100 µM in the assay with HCT-15 colon. In the assay with UACC-257 melanoma, this molecule showed a TGI of 33.3 µM.
